{"source": "the supplement of paper PMC10307832", "assay_in_all_cases": "relative viability (nuclei count vs DMSO), 5 days (fraction); higher = more cells survive", "key": {"AZ505 + Navitoclax": {"compound": "C1CCC(CC1)N(CCNCCC2=C3C(=C(C=C2)O)NC(=O)CO3)C(=O)CCNCCC4=CC(=C(C=C4)Cl)Cl [AZ505] + CC1(C)CCC(c2ccc(Cl)cc2)=C(CN2CCN(c3ccc(C(=O)NS(=O)(=O)c4ccc(N[C@H](CCN5CCOCC5)CSc5ccccc5)c(S(=O)(=O)C(F)(F)F)c4)cc3)CC2)C1 [Navitoclax] (partner 0.5 µM)", "outline": "(§1)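 Lung cancer cell lines, seeded in 1536-well plates, were treated the following day by pin tool with a single drug or with five library-drug doses (not always all listed) in √10 steps on top of a fixed anchor-drug dose. Cells were fixed and nuclei stained in one step after 5 days, and nuclei were counted. Relative viability is the nuclei count for treated wells divided by that for vehicle wells, reported as medians of duplicate plates.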"}, "AZ505 + Phenformin": {"compound": "C1CCC(CC1)N(CCNCCC2=C3C(=C(C=C2)O)NC(=O)CO3)C(=O)CCNCCC4=CC(=C(C=C4)Cl)Cl [AZ505] + N=C(N)NC(=N)NCCc1ccccc1 [Phenformin] (partner 250 µM)", "outline": "as §1"}, "Dactolisib + Alpelisib": {"compound": "Cn1c(=O)n(-c2ccc(C(C)(C)C#N)cc2)c2c3cc(-c4cnc5ccccc5c4)ccc3ncc21 [Dactolisib] + Cc1nc(NC(=O)N2CCC[C@H]2C(N)=O)sc1-c1ccnc(C(C)(C)C(F)(F)F)c1 [Alpelisib] (partner 2 µM)", "outline": "as §1"}, "Dactolisib + Pemetrexed": {"compound": "Cn1c(=O)n(-c2ccc(C(C)(C)C#N)cc2)c2c3cc(-c4cnc5ccccc5c4)ccc3ncc21 [Dactolisib] + Nc1nc2[nH]cc(CCc3ccc(C(=O)N[C@@H](CCC(=O)O)C(=O)O)cc3)c2c(=O)[nH]1 [Pemetrexed] (partner 0.2 µM)", "outline": "as §1"}}, "data": [{"cell line": "UMC-11", "values": [{"measurement": "relative viability", "setting": "AZ505 + Navitoclax; first compound 0.08 µM", "value": 0.26}, {"measurement": "relative viability", "setting": "AZ505 + Navitoclax; first compound 0.253 µM", "value": 0.295}, {"measurement": "relative viability", "setting": "AZ505 + Navitoclax; first compound 0.8 µM", "value": 0.327}, {"measurement": "relative viability", "setting": "AZ505 + Navitoclax; first compound 2.53 µM", "value": 0.334}, {"measurement": "relative viability", "setting": "AZ505 + Navitoclax; first compound 8 µM", "value": 0.373}, {"measurement": "relative viability", "setting": "AZ505 + Phenformin; first compound 0.08 µM", "value": 0.305}, {"measurement": "relative viability", "setting": "AZ505 + Phenformin; first compound 0.253 µM", "value": 0.323}, {"measurement": "relative viability", "setting": "AZ505 + Phenformin; first compound 0.8 µM", "value": 0.328}, {"measurement": "relative viability", "setting": "AZ505 + Phenformin; first compound 2.53 µM", "value": 0.328}, {"measurement": "relative viability", "setting": "AZ505 + Phenformin; first compound 8 µM", "value": 0.325}, {"measurement": "relative viability", "setting": "Dactolisib + Alpelisib; first compound 0.002 µM", "value": 0.961}, {"measurement": "relative viability", "setting": "Dactolisib + Alpelisib; first compound 0.006325 µM", "value": 0.852}, {"measurement": "relative viability", "setting": "Dactolisib + Alpelisib; first compound 0.02 µM", "value": 0.63}, {"measurement": "relative viability", "setting": "Dactolisib + Alpelisib; first compound 0.06325 µM", "value": 0.266}, {"measurement": "relative viability", "setting": "Dactolisib + Alpelisib; first compound 0.2 µM", "value": 0.243}, {"measurement": "relative viability", "setting": "Dactolisib + Pemetrexed; first compound 0.002 µM", "value": 0.855}, {"measurement": "relative viability", "setting": "Dactolisib + Pemetrexed; first compound 0.006325 µM", "value": 0.742}, {"measurement": "relative viability", "setting": "Dactolisib + Pemetrexed; first compound 0.02 µM", "value": 0.552}, {"measurement": "relative viability", "setting": "Dactolisib + Pemetrexed; first compound 0.06325 µM", "value": 0.453}, {"measurement": "relative viability", "setting": "Dactolisib + Pemetrexed; first compound 0.2 µM", "value": 0.26}]}]}
